Data: the supplement of paper PMC6315032

How the values were obtained:
Experiment in all cases: apparent dissociation constant (pKDapp, Kinobeads competition, Cheng-Prusoff corrected) (-log10 M); higher = tighter binding
[1] = target: CDK2 (UniProt P24941); conditions: affinity matrix / lysate: Kinobeads, mixed HEK293/K-562/placenta lysate
[2] = target: FYN (UniProt P06241); conditions: affinity matrix / lysate: Kinobeads, mixed HEK293/K-562/placenta lysate
[3] = target: CHEK1 (UniProt O14757); conditions: affinity matrix / lysate: Kinobeads, mixed HEK293/K-562/placenta lysate
[4] = target: KIAA0999 (UniProt Q9Y2K2); conditions: affinity matrix / lysate: Kinobeads, mixed HEK293/K-562/placenta lysate
[5] = target: PIP4K2B (UniProt P78356); conditions: affinity matrix / lysate: Kinobeads, mixed HEK293/K-562/placenta lysate
[6] = target: PRKCZ (UniProt Q05513); conditions: affinity matrix / lysate: Kinobeads, mixed HEK293/K-562/placenta lysate
[7] = target: ULK1 (UniProt O75385); conditions: affinity matrix / lysate: Kinobeads, mixed HEK293/K-562/placenta lysate
[8] = target: PHKG2 (UniProt P15735); conditions: affinity matrix / lysate: Kinobeads, mixed HEK293/K-562/placenta lysate
[9] = target: ILK (UniProt Q13418); conditions: affinity matrix / lysate: Kinobeads, mixed HEK293/K-562/placenta lysate
[10] = target: PCTK2 (UniProt Q00537); conditions: affinity matrix / lysate: Kinobeads, mixed HEK293/K-562/placenta lysate
[11] = target: JAK2 (UniProt O60674); conditions: affinity matrix / lysate: Kinobeads, mixed HEK293/K-562/placenta lysate
[12] = target: CDK8 (UniProt P49336); conditions: affinity matrix / lysate: Kinobeads, mixed HEK293/K-562/placenta lysate
[13] = target: ABL2 (UniProt P42684); conditions: affinity matrix / lysate: Kinobeads, mixed HEK293/K-562/placenta lysate
[14] = target: CSNK1E (UniProt P49674); conditions: affinity matrix / lysate: Kinobeads, mixed HEK293/K-562/placenta lysate
[15] = target: STK38 (UniProt Q15208); conditions: affinity matrix / lysate: Kinobeads, mixed HEK293/K-562/placenta lysate
[16] = target: GAK (UniProt O14976); conditions: affinity matrix / lysate: Kinobeads, mixed HEK293/K-562/placenta lysate
[17] = target: ITK (UniProt Q08881); conditions: affinity matrix / lysate: Kinobeads, mixed HEK293/K-562/placenta lysate
[18] = target: MERTK (UniProt Q12866); conditions: affinity matrix / lysate: Kinobeads, mixed HEK293/K-562/placenta lysate
[19] = target: CDC42BPG (UniProt Q6DT37); conditions: affinity matrix / lysate: Kinobeads, mixed HEK293/K-562/placenta lysate
Chain of CDC42BPG (Q6DT37 whole entry): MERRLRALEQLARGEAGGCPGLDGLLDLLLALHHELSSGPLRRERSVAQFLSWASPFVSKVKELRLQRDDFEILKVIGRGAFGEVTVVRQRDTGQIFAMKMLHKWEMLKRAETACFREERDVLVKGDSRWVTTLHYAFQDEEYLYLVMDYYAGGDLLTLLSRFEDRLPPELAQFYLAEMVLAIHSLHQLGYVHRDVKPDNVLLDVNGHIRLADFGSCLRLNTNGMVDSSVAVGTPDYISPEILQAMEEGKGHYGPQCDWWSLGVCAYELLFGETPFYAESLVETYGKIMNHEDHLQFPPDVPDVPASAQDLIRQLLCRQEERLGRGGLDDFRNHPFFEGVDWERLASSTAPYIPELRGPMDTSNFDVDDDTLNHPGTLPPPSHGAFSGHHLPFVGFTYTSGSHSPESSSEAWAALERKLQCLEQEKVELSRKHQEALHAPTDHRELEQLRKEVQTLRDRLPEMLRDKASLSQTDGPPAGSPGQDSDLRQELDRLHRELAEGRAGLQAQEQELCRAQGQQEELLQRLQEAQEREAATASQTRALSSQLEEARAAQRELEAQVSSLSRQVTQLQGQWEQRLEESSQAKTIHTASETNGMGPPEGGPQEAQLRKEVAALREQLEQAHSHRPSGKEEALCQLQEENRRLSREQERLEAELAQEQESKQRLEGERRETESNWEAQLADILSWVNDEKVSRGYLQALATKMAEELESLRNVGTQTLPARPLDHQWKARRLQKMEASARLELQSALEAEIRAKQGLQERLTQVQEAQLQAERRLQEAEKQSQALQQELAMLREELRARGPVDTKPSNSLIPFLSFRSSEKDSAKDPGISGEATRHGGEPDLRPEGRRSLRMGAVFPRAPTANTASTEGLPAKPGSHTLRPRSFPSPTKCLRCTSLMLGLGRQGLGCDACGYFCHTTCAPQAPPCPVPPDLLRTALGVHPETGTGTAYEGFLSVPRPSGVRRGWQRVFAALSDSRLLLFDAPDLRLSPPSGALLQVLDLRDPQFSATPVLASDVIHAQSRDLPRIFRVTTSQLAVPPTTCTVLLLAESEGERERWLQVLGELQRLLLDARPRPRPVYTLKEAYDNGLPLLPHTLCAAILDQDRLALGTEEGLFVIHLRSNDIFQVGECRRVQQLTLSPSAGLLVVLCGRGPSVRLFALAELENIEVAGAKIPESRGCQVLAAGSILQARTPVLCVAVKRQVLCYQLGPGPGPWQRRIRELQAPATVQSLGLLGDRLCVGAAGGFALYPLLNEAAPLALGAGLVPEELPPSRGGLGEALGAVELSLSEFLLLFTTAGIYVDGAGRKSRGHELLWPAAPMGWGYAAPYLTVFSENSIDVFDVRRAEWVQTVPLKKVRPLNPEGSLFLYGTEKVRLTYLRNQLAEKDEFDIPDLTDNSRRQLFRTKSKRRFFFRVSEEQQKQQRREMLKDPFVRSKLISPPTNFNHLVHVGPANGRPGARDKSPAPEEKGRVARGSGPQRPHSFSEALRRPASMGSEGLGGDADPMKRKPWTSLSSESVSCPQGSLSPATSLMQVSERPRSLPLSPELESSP

[20] = target: CDK7 (UniProt P50613); conditions: affinity matrix / lysate: Kinobeads, mixed HEK293/K-562/placenta lysate
Chain of CDK7 (P50613 whole entry): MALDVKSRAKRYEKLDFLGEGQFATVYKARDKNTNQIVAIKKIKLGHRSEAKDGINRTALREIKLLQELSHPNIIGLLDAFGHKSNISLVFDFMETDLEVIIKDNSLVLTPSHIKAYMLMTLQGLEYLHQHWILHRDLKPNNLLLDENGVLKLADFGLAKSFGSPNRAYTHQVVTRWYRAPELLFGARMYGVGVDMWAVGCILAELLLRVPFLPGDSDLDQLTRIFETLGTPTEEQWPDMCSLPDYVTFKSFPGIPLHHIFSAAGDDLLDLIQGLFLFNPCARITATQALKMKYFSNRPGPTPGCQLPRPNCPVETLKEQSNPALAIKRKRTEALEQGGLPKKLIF

[21] = target: KSR1 (UniProt Q8IVT5); conditions: affinity matrix / lysate: Kinobeads, mixed HEK293/K-562/placenta lysate
[22] = target: CSK (UniProt P41240); conditions: affinity matrix / lysate: Kinobeads, mixed HEK293/K-562/placenta lysate
[23] = target: MAP3K7 (UniProt O43318); conditions: affinity matrix / lysate: Kinobeads, mixed HEK293/K-562/placenta lysate
[24] = target: STK38L (UniProt Q9Y2H1); conditions: affinity matrix / lysate: Kinobeads, mixed HEK293/K-562/placenta lysate
[25] = target: CDKL5 (UniProt O76039); conditions: affinity matrix / lysate: Kinobeads, mixed HEK293/K-562/placenta lysate
[26] = target: PI4KA (UniProt P42356)
Chain of PI4KA (P42356 whole entry, looked up): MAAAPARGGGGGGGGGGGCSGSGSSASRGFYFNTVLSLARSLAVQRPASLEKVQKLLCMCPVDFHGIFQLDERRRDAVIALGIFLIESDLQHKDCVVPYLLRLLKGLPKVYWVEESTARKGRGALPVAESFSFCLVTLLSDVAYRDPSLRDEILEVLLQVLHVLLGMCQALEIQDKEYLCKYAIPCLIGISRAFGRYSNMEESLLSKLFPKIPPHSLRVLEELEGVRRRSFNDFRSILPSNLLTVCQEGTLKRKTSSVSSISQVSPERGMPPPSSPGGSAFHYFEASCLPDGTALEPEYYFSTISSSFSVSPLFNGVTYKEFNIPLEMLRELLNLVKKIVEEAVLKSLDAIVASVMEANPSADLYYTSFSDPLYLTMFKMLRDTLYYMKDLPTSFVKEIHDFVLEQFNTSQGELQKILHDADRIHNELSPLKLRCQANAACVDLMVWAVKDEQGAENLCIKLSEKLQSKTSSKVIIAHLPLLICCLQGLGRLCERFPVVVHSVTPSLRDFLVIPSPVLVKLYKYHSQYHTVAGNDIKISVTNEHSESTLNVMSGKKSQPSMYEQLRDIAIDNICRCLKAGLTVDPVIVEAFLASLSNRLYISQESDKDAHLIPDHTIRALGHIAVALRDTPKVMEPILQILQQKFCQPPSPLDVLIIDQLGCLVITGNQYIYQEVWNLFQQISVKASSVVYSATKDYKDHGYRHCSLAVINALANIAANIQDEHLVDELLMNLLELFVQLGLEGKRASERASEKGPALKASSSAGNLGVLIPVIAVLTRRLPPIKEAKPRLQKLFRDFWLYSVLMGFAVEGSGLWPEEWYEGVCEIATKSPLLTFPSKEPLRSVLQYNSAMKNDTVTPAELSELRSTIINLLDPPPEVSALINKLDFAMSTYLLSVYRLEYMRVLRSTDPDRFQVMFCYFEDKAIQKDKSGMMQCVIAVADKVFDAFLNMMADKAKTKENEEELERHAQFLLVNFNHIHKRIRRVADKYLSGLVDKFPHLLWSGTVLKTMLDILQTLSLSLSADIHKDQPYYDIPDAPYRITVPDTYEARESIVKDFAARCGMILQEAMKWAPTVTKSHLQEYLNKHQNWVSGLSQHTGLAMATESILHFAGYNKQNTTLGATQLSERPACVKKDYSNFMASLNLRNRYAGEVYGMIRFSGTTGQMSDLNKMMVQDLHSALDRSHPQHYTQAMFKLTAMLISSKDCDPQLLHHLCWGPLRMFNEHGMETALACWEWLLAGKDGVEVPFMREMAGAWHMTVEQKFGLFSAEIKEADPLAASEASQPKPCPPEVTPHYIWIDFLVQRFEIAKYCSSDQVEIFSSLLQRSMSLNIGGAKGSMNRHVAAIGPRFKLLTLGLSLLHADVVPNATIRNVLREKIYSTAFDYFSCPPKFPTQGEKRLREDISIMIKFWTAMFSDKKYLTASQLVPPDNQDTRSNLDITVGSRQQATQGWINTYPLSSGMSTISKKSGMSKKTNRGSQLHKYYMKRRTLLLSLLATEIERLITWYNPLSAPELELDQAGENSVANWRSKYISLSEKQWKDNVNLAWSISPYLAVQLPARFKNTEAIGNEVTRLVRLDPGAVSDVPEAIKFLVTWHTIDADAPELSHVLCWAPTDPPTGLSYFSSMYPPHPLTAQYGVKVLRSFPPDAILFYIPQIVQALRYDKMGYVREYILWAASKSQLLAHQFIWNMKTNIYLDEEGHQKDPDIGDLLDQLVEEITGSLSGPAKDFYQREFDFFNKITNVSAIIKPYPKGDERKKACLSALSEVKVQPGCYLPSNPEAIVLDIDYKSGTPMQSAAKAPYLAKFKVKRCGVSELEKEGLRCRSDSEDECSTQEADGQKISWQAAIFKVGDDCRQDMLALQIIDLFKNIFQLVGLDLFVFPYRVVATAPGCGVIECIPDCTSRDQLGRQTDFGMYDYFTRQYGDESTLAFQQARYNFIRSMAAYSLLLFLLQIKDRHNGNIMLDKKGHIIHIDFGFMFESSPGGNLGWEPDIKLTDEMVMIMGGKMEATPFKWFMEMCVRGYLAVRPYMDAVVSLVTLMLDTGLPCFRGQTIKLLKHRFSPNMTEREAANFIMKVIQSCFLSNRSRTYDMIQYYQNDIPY

[27] = target: TNIK (UniProt Q9UKE5); conditions: affinity matrix / lysate: Kinobeads, mixed HEK293/K-562/placenta lysate
[28] = target: LYN (UniProt P07948); conditions: affinity matrix / lysate: Kinobeads, mixed HEK293/K-562/placenta lysate
[29] = target: MELK (UniProt Q14680); conditions: affinity matrix / lysate: Kinobeads, mixed HEK293/K-562/placenta lysate
[30] = target: PKN2 (UniProt Q16513); conditions: affinity matrix / lysate: Kinobeads, mixed HEK293/K-562/placenta lysate
Chain of PKN2 (Q16513 whole entry, looked up): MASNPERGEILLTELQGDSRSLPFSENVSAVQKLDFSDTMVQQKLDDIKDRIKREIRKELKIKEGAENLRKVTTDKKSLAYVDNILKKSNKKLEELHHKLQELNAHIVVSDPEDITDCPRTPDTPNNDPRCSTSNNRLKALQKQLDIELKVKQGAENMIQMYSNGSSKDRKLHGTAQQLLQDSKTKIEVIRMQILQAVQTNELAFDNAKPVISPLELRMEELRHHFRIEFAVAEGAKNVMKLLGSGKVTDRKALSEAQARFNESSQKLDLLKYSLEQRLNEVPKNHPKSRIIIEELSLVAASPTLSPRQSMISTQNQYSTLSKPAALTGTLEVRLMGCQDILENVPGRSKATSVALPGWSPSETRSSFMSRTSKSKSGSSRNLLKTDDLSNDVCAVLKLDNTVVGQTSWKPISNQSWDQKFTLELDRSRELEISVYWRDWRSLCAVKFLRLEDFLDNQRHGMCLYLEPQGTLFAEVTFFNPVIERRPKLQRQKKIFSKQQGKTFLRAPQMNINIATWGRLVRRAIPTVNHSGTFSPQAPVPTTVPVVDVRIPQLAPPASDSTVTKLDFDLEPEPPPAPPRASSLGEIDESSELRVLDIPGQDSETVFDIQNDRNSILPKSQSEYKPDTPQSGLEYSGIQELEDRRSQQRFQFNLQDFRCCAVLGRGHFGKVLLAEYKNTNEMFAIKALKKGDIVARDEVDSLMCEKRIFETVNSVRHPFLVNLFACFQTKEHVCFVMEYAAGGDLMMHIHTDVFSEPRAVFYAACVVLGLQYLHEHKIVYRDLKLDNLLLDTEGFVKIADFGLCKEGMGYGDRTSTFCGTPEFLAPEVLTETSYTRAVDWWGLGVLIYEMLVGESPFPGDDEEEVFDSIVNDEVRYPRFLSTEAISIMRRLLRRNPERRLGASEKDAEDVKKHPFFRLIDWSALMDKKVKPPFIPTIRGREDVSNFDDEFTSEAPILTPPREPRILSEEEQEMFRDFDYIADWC

[31] = target: TGFBR1 (UniProt P36897); conditions: affinity matrix / lysate: Kinobeads, mixed HEK293/K-562/placenta lysate
[32] = target: SNRK (UniProt Q9NRH2); conditions: affinity matrix / lysate: Kinobeads, mixed HEK293/K-562/placenta lysate
[33] = target: MAST3 (UniProt O60307); conditions: affinity matrix / lysate: Kinobeads, mixed HEK293/K-562/placenta lysate
[34] = affinity matrix / lysate: Lipid Kinobeads, mixed HeLa/Jurkat/K-562 lysate

Measured: apparent dissociation constant (-log10 M)

COc1ccc(-c2ccc3c(N4CCOC[C@@H]4C)nc(N4CCOC[C@@H]4C)nc3n2)cc1CO [AZD8055]
< 6: [1] | [2] | [3] | [4] | [5] | [6] | [7] | [8] | [9] | [10] | [11] | [12] | [13] | [14] | [15] | [16] | [17] | [18] | [19] | [20] | [21] | [22] | [23] | [24] | [25] | [26]; affinity matrix / lysate: Kinobeads, mixed HEK293/K-562/placenta lysate | [26]; [34] | [27] | [28] | [29] | [30] | [31] | [32] | [33]

CCNC(=O)Nc1ccc(-c2nc(N3CCOC[C@@H]3C)c3c(n2)C(C)(C)S(=O)(=O)C3)cc1 [CZ415]
< 6: [1] | [2] | [3] | [4] | [5] | [6] | [7] | [8] | [9] | [10] | [11] | [12] | [13] | [14] | [15] | [16] | [17] | [18] | [19] | [20] | [21] | [22] | [23] | [24] | [25] | [26]; [34] | [27] | [28] | [29] | [30] | [31] | [32] | [33]
